Measurements published in the kinase profiling compilation of Christmann-Franck et al. (2016).

Legend:
Test in all cases: KINOMEscan competition binding
Conditions in all cases: compound 10.0 µM
[1] = molecular target: DAPK2 (human) (UniProt Q9UIK4)
[2] = molecular target: RPS6KA6 KD2 (human) (UniProt Q9UK32)
[3] = molecular target: FRK (human) (UniProt P42685)
[4] = molecular target: MAP3K5 (human) (UniProt Q99683)
[5] = molecular target: TGFBR2 (human) (UniProt P37173)
[6] = molecular target: CHEK2 (human) (UniProt O96017)
[7] = molecular target: MAPK1 (human) (UniProt P28482)
[8] = molecular target: ADCK3 (human) (UniProt Q8NI60)
Chain of ADCK3 (human) (Q8NI60 whole entry, looked up): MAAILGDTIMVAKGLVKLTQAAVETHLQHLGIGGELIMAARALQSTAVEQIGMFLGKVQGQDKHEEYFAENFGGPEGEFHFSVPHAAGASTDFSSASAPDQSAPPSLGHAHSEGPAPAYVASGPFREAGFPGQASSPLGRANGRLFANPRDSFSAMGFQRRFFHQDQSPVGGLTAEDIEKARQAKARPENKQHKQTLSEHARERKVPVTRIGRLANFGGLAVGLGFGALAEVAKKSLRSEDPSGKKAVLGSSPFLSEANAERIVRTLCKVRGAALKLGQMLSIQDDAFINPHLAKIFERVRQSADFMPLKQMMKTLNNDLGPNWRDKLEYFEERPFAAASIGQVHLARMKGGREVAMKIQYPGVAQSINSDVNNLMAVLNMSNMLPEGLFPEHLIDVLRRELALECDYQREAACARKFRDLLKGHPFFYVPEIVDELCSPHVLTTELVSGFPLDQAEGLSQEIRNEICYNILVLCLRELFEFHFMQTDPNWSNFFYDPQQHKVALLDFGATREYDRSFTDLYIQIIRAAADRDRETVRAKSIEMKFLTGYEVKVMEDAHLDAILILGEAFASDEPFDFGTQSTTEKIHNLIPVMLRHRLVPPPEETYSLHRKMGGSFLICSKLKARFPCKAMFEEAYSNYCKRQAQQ

[9] = molecular target: CSNK1G3 (human) (UniProt Q9Y6M4)
Chain of CSNK1G3 (human) (Q9Y6M4 whole entry, looked up): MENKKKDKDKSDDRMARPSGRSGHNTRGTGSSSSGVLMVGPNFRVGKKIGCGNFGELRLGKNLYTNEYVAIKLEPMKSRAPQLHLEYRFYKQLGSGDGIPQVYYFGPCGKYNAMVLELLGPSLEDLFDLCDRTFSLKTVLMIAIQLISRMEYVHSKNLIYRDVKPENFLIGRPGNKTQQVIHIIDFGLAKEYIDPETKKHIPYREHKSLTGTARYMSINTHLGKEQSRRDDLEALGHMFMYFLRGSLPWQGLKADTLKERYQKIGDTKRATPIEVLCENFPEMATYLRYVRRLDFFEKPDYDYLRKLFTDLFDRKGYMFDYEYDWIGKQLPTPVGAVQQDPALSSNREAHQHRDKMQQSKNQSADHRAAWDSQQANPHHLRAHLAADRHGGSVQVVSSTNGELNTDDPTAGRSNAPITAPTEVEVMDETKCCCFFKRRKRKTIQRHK

[10] = molecular target: PAK1 (human) (UniProt Q13153)
[11] = molecular target: RIPK4 (human) (UniProt P57078)
[12] = molecular target: ACVR2B (human) (UniProt Q13705)
[13] = molecular target: MAP3K11 (human) (UniProt Q16584)
[14] = molecular target: MAP4K4 (human) (UniProt O95819)
[15] = molecular target: PRKD1 (human) (UniProt Q15139)
[16] = molecular target: RIOK3 (human) (UniProt O14730)
[17] = molecular target: STK32B (human) (UniProt Q9NY57)
[18] = molecular target: MINK1 (human) (UniProt Q8N4C8)
[19] = molecular target: LTK (human) (UniProt P29376)
[20] = molecular target: RPS6KA3 KD1 (human) (UniProt P51812)
Chain of RPS6KA3 KD1 (human) (P51812 whole entry, looked up): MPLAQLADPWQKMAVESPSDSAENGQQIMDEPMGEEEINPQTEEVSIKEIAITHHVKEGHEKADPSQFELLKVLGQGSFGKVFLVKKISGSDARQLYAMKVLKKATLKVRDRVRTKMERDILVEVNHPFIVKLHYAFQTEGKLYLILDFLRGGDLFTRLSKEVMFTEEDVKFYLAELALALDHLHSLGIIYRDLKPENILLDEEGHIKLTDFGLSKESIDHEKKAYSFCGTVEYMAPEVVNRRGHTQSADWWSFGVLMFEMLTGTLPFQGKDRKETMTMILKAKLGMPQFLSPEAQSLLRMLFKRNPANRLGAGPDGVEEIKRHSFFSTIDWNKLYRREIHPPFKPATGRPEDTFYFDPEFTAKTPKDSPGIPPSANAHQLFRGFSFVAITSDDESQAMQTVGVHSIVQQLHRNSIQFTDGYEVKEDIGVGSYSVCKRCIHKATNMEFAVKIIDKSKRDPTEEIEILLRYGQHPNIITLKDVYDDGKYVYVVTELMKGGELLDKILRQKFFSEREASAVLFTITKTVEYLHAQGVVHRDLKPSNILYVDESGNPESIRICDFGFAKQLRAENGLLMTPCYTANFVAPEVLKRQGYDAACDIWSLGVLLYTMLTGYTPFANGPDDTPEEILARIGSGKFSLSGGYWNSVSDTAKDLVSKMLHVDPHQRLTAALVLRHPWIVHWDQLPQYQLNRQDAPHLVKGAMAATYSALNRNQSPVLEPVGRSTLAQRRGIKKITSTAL

[21] = molecular target: CSNK1G1 (human) (UniProt Q9HCP0)
[22] = molecular target: EPHA4 (human) (UniProt P54764)
[23] = molecular target: STK25 (human) (UniProt O00506)
[24] = molecular target: DAPK1 (human) (UniProt P53355)
[25] = molecular target: CIT (human) (UniProt O14578)
[26] = molecular target: CDC2L2 (human) (UniProt Q9UQ88)
Chain of CDC2L2 (human) (Q9UQ88 whole entry, looked up): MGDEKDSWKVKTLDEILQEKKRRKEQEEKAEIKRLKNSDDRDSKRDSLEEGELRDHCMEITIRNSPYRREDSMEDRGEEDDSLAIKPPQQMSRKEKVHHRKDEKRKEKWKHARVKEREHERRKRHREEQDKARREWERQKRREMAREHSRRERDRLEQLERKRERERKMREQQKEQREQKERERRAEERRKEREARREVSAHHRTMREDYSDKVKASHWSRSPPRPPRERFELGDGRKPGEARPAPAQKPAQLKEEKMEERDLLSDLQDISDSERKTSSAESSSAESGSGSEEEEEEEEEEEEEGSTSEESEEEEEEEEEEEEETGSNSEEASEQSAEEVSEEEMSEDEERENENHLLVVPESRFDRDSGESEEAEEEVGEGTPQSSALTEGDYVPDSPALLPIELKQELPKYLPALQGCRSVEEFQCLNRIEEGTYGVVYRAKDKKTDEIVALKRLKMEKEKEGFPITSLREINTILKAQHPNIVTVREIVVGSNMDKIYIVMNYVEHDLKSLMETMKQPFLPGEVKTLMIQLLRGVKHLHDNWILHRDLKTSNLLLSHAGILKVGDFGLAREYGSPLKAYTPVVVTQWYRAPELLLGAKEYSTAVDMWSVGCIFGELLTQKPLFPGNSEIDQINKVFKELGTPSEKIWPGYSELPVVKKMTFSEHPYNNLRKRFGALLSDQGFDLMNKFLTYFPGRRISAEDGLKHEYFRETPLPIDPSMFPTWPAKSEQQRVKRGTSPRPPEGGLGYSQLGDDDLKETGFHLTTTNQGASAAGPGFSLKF

[27] = molecular target: MAPK9 (human) (UniProt P45984)
[28] = molecular target: STK10 (human) (UniProt O94804)
Chain of STK10 (human) (O94804 whole entry, looked up): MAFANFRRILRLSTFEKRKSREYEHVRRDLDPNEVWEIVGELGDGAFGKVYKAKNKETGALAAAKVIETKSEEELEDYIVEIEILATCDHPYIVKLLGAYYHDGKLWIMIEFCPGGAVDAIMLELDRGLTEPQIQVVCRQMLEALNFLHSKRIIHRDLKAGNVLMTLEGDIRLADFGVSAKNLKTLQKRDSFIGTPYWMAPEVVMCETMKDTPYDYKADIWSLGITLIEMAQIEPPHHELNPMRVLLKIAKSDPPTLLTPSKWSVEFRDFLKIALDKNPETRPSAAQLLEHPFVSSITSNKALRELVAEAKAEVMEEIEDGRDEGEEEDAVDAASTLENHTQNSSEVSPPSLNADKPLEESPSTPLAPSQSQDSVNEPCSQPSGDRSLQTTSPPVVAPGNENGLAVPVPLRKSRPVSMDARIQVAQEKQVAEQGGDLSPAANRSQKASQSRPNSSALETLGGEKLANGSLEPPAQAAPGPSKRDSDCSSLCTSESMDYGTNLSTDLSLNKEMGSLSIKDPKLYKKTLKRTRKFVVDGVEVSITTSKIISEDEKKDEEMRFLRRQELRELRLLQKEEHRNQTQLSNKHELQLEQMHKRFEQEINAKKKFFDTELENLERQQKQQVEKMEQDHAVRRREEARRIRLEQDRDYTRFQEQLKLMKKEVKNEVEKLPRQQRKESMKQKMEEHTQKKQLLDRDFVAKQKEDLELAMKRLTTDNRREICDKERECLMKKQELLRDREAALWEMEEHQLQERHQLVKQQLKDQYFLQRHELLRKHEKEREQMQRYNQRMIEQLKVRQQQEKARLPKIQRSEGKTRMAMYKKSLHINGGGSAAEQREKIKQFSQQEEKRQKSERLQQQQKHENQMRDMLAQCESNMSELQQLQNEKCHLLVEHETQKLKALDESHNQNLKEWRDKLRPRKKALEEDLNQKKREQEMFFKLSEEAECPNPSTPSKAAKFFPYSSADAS

[29] = molecular target: LATS2 (human) (UniProt Q9NRM7)
[30] = molecular target: CDK3 (human) (UniProt Q00526)
[31] = molecular target: MAPK4 (human) (UniProt P31152)
[32] = molecular target: TNK1 (human) (UniProt Q13470)
[33] = molecular target: PAK6 (human) (UniProt Q9NQU5)
[34] = molecular target: RIOK1 (human) (UniProt Q9BRS2)
[35] = molecular target: TXK (human) (UniProt P42681)
[36] = molecular target: CAMK2G (human) (UniProt Q13555)
[37] = molecular target: JAK1 JH1 catalytic (human) (UniProt P23458)
[38] = molecular target: EPHA5 (human) (UniProt P54756)

Chain of RPS6KA6 KD2 (human) (Q9UK32 whole entry, looked up): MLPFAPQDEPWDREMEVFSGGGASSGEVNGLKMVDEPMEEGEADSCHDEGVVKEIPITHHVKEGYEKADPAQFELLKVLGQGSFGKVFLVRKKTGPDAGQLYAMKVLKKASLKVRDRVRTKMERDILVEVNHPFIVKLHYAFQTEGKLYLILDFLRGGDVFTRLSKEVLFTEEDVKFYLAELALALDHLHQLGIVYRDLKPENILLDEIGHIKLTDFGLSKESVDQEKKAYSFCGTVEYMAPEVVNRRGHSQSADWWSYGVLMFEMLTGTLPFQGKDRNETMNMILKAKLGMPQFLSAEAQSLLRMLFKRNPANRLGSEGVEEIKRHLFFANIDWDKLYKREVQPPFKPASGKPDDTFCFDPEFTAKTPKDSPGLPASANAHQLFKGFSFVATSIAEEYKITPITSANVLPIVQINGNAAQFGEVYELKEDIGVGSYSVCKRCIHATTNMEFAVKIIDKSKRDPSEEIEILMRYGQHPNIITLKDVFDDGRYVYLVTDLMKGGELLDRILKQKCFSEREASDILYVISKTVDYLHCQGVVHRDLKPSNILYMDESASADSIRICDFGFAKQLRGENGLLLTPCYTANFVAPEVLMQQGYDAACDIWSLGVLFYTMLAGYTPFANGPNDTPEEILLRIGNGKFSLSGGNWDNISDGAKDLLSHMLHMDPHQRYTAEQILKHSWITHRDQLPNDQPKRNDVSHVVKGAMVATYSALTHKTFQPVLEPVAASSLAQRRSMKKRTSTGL
Chain of FRK (human) (P42685 whole entry, looked up): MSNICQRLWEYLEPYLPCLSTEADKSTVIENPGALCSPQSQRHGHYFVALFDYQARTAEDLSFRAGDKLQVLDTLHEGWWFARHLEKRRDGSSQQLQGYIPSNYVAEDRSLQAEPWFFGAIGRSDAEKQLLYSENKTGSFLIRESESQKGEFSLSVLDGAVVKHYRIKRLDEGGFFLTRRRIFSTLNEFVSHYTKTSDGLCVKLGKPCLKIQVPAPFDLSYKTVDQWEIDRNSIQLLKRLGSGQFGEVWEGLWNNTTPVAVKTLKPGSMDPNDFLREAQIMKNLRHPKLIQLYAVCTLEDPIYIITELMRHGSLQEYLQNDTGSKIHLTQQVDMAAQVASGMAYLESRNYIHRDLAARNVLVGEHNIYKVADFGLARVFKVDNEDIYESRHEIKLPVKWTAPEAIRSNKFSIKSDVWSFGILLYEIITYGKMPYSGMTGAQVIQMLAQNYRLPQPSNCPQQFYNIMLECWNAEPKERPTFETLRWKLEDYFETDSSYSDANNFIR

O=C(O)c1ccc(Nc2ncc3c(n2)-c2ccc(Cl)cc2C(c2c(F)cccc2F)=NC3)cc1
kinase still bound, per cent of control [1]: 41% | kinase still bound, per cent of control [2]: 58% | kinase still bound, per cent of control [3]: 73% | kinase still bound, per cent of control [4]: 100% | kinase still bound, per cent of control [5]: 58% | kinase still bound, per cent of control [6]: 100% | kinase still bound, per cent of control [7]: 100% | kinase still bound, per cent of control [8]: 88% | kinase still bound, per cent of control [9]: 93% | kinase still bound, per cent of control [10]: 80% | kinase still bound, per cent of control [11]: 100% | kinase still bound, per cent of control [12]: 100% | kinase still bound, per cent of control [13]: 84% | kinase still bound, per cent of control [14]: 86% | kinase still bound, per cent of control [15]: 92% | kinase still bound, per cent of control [16]: 100% | kinase still bound, per cent of control [17]: 38% | kinase still bound, per cent of control [18]: 100% | kinase still bound, per cent of control [19]: 62% | kinase still bound, per cent of control [20]: 28% | kinase still bound, per cent of control [21]: 37% | kinase still bound, per cent of control [22]: 11% | kinase still bound, per cent of control [23]: 56% | kinase still bound, per cent of control [24]: 48% | kinase still bound, per cent of control [25]: 37% | kinase still bound, per cent of control [26]: 100% | kinase still bound, per cent of control [27]: 57% | kinase still bound, per cent of control [28]: 6.7% | kinase still bound, per cent of control [29]: 72% | kinase still bound, per cent of control [30]: 100% | kinase still bound, per cent of control [31]: 66% | kinase still bound, per cent of control [32]: 16% | kinase still bound, per cent of control [33]: 79% | kinase still bound, per cent of control [34]: 100% | kinase still bound, per cent of control [35]: 46% | kinase still bound, per cent of control [36]: 98% | kinase still bound, per cent of control [37]: 90% | kinase still bound, per cent of control [38]: 1.5%
